Earlier results, collected in publication PMC8513935.
Blank lines part the entries; values can stand above or below the molecule they belong to.

Key:
[1] = experimental, compiled by the authors from the literature (the ESI cites the sources)
[2] = derived by the authors as gas->solvent minus gas->water (a hypothetical dry solvent; the ESI), not a two-phase measurement
[3] = log P octanol/water from commercial databases, averaged (the ESI); conditions: Octanol (wet), 25 C

SMILES: CCCCCl
log K of transfer, gas to solvent ([1]; 1,2-Dichloroethane, 25 C): 3.25 log10 K
log K of transfer, gas to solvent ([1]; 2-Methylpropan-1-ol, 25 C): 2.73 log10 K
log K of transfer, gas to solvent ([1]; 2-Methylpropan-2-ol, 25 C): 2.71 log10 K
log K of transfer, gas to solvent ([1]; Butan-2-ol, 25 C): 2.73 log10 K
log K of transfer, gas to solvent ([1]; CCl4, 25 C): 3.16 log10 K
log K of transfer, gas to solvent ([1]; Chlorobenzene, 25 C): 3.19 log10 K
log K of transfer, gas to solvent ([1]; Decan-1-ol, 25 C): 2.69 log10 K
log K of transfer, gas to solvent ([1]; Di-n-butyl ether, 25 C): 3.01 log10 K
log K of transfer, gas to solvent ([1]; Diethyl Ether, 25 C): 3.21 log10 K
log K of transfer, gas to solvent ([1]; Hexadecane, 25 C): 2.72 log10 K
log K of transfer, gas to solvent ([1]; Hexane, 25 C): 2.95 log10 K
log K of transfer, gas to solvent ([1]; Octan-1-ol, 25 C): 2.72 log10 K
log K of transfer, gas to solvent ([1]; Propan-1-ol, 25 C): 2.63 log10 K
log K of transfer, gas to solvent ([1]; Propanone, 25 C): 3.12 log10 K
log K of transfer, gas to solvent ([1]; Water, 25 C): 0.12 log10 K
log K of transfer, water to solvent ([2]; 1,2-Dichloroethane, 25 C): 3.13 log10 K
log K of transfer, water to solvent ([2]; 2-Methylpropan-1-ol, 25 C): 2.61 log10 K
log K of transfer, water to solvent ([2]; 2-Methylpropan-2-ol, 25 C): 2.59 log10 K
log K of transfer, water to solvent ([2]; Acetone, 25 C): 3 log10 K
log K of transfer, water to solvent ([2]; Butan-2-ol, 25 C): 2.61 log10 K
log K of transfer, water to solvent ([2]; CCl4, 25 C): 3.04 log10 K
log K of transfer, water to solvent ([2]; Chlorobenzene, 25 C): 3.07 log10 K
log K of transfer, water to solvent ([2]; Decan-1-ol, 25 C): 2.57 log10 K
log K of transfer, water to solvent ([2]; Di-n-butyl ether, 25 C): 2.89 log10 K
log K of transfer, water to solvent ([2]; Diethyl Ether, 25 C): 3.09 log10 K
log K of transfer, water to solvent ([2]; Hexadecane, 25 C): 2.6 log10 K
log K of transfer, water to solvent ([2]; Hexane, 25 C): 2.83 log10 K
log K of transfer, water to solvent ([2]; Octan-1-ol(dry), 25 C): 2.6 log10 K
log K of transfer, water to solvent ([2]; Propan-1-ol, 25 C): 2.51 log10 K
log K of transfer, water to solvent [3]: 2.64 log10 K

log K of transfer, gas to solvent ([1]; 2-Methylpropan-1-ol, 25 C): 1.54 log10 K
log K of transfer, gas to solvent ([1]; 2-Methylpropan-2-ol, 25 C): 1.65 log10 K
log K of transfer, gas to solvent ([1]; 3-Methylbutan-1-ol, 25 C): 1.46 log10 K
log K of transfer, gas to solvent ([1]; Butan-1-ol, 25 C): 1.5 log10 K
log K of transfer, gas to solvent ([1]; Butan-2-ol, 25 C): 1.54 log10 K
log K of transfer, gas to solvent ([1]; Chlorobenzene, 25 C): 1.6 log10 K
log K of transfer, gas to solvent ([1]; Hexadecane, 25 C): 1.28 log10 K
log K of transfer, gas to solvent ([1]; Hexane, 25 C): 1.31 log10 K
log K of transfer, gas to solvent ([1]; Methanol, 25 C): 1.69 log10 K
log K of transfer, gas to solvent ([1]; Octan-1-ol, 25 C): 1.37 log10 K
log K of transfer, gas to solvent ([1]; Pentan-1-ol, 25 C): 1.45 log10 K
log K of transfer, gas to solvent ([1]; Propan-2-ol, 25 C): 1.56 log10 K
log K of transfer, gas to solvent ([1]; Water, 25 C): 1.4 log10 K
log K of transfer, water to solvent ([2]; 2-Methylpropan-1-ol, 25 C): 0.14 log10 K
log K of transfer, water to solvent ([2]; 2-Methylpropan-2-ol, 25 C): 0.25 log10 K
log K of transfer, water to solvent ([2]; 3-Methylbutan-1-ol, 25 C): 0.057 log10 K
log K of transfer, water to solvent ([2]; Butan-1-ol, 25 C): 0.0999 log10 K
log K of transfer, water to solvent ([2]; Butan-2-ol, 25 C): 0.14 log10 K
log K of transfer, water to solvent ([2]; Chlorobenzene, 25 C): 0.2 log10 K
log K of transfer, water to solvent ([2]; Hexadecane, 25 C): -0.115 log10 K
log K of transfer, water to solvent ([2]; Hexane, 25 C): -0.087 log10 K
log K of transfer, water to solvent ([2]; Methanol, 25 C): 0.29 log10 K
log K of transfer, water to solvent ([2]; Octan-1-ol(dry), 25 C): -0.03 log10 K
log K of transfer, water to solvent ([2]; Pentan-1-ol, 25 C): 0.05 log10 K
log K of transfer, water to solvent ([2]; Propan-2-ol, 25 C): 0.16 log10 K
log K of transfer, water to solvent [3]: 0.0999 log10 K
SMILES: COC

log K of transfer, gas to solvent ([1]; 1,2-Dichloroethane, 25 C): 3.21 log10 K
log K of transfer, gas to solvent ([1]; Butan-1-ol, 25 C): 3.56 log10 K
log K of transfer, gas to solvent ([1]; Butan-2-ol, 25 C): 3.53 log10 K
log K of transfer, gas to solvent ([1]; Butanone, 25 C): 3.05 log10 K
log K of transfer, gas to solvent ([1]; CCl4, 25 C): 3.54 log10 K
log K of transfer, gas to solvent ([1]; Chlorobenzene, 25 C): 3.35 log10 K
log K of transfer, gas to solvent ([1]; Chloroform, 25 C): 4.22 log10 K
log K of transfer, gas to solvent ([1]; Cyclohexanone, 25 C): 3.01 log10 K
log K of transfer, gas to solvent ([1]; Diethyl Ether, 25 C): 3.26 log10 K
log K of transfer, gas to solvent ([1]; Ethanol, 25 C): 3.57 log10 K
log K of transfer, gas to solvent ([1]; Hexadecane, 25 C): 3.04 log10 K
log K of transfer, gas to solvent ([1]; Hexane, 25 C): 3.29 log10 K
log K of transfer, gas to solvent ([1]; Methanol, 25 C): 3.84 log10 K
log K of transfer, gas to solvent ([1]; Pentan-1-ol, 25 C): 3.64 log10 K
log K of transfer, gas to solvent ([1]; Propan-1-ol, 25 C): 3.5 log10 K
log K of transfer, gas to solvent ([1]; Propan-2-ol, 25 C): 3.31 log10 K
log K of transfer, gas to solvent ([1]; Propanone, 25 C): 2.97 log10 K
log K of transfer, gas to solvent ([1]; Tetrahydrofuran, 25 C): 3.37 log10 K
log K of transfer, gas to solvent ([1]; Water, 25 C): 2.36 log10 K
log K of transfer, water to solvent ([2]; 1,2-Dichloroethane, 25 C): 0.85 log10 K
log K of transfer, water to solvent ([2]; Acetone, 25 C): 0.61 log10 K
log K of transfer, water to solvent ([2]; Butan-1-ol, 25 C): 1.2 log10 K
log K of transfer, water to solvent ([2]; Butan-2-ol, 25 C): 1.17 log10 K
log K of transfer, water to solvent ([2]; Butanone, 25 C): 0.69 log10 K
log K of transfer, water to solvent ([2]; CCl4, 25 C): 1.18 log10 K
log K of transfer, water to solvent ([2]; Chlorobenzene, 25 C): 0.99 log10 K
log K of transfer, water to solvent ([2]; Chloroform, 25 C): 1.86 log10 K
log K of transfer, water to solvent ([2]; Cyclohexanone, 25 C): 0.654 log10 K
log K of transfer, water to solvent ([2]; Diethyl Ether, 25 C): 0.9 log10 K
log K of transfer, water to solvent ([2]; Ethanol, 25 C): 1.21 log10 K
log K of transfer, water to solvent ([2]; Hexadecane, 25 C): 0.68 log10 K
log K of transfer, water to solvent ([2]; Hexane, 25 C): 0.93 log10 K
log K of transfer, water to solvent ([2]; Methanol, 25 C): 1.48 log10 K
log K of transfer, water to solvent ([2]; Pentan-1-ol, 25 C): 1.28 log10 K
log K of transfer, water to solvent ([2]; Propan-1-ol, 25 C): 1.14 log10 K
log K of transfer, water to solvent ([2]; Propan-2-ol, 25 C): 0.95 log10 K
log K of transfer, water to solvent ([2]; Tetrahydrofuran, 25 C): 1.01 log10 K
log K of transfer, water to solvent [3]: 1.45 log10 K
SMILES: CCN(CC)CC

SMILES: CC(C)=O
log K of transfer, gas to solvent ([1]; 1,2-Dichloroethane, 25 C): 3.13 log10 K
log K of transfer, gas to solvent ([1]; Acetonitrile, 25 C): 3.14 log10 K
log K of transfer, gas to solvent ([1]; Benzene, 25 C): 2.78 log10 K
log K of transfer, gas to solvent ([1]; Butan-1-ol, 25 C): 2.57 log10 K
log K of transfer, gas to solvent ([1]; Butanone, 25 C): 2.92 log10 K
log K of transfer, gas to solvent ([1]; CCl4, 25 C): 2.38 log10 K
log K of transfer, gas to solvent ([1]; Chlorobenzene, 25 C): 2.66 log10 K
log K of transfer, gas to solvent ([1]; Chloroform, 25 C): 3.29 log10 K
log K of transfer, gas to solvent ([1]; Cyclohexane, 25 C): 1.88 log10 K
log K of transfer, gas to solvent ([1]; Cyclohexanone, 25 C): 2.79 log10 K
log K of transfer, gas to solvent ([1]; Di-n-butyl ether, 25 C): 2.25 log10 K
log K of transfer, gas to solvent ([1]; Dichloromethane, 25 C): 3.39 log10 K
log K of transfer, gas to solvent ([1]; Diethyl Ether, 25 C): 2.57 log10 K
log K of transfer, gas to solvent ([1]; Ethanol, 25 C): 2.77 log10 K
log K of transfer, gas to solvent ([1]; Hexadecane, 25 C): 1.7 log10 K
log K of transfer, gas to solvent ([1]; Hexane, 25 C): 1.96 log10 K
log K of transfer, gas to solvent ([1]; Methanol, 25 C): 2.89 log10 K
log K of transfer, gas to solvent ([1]; Octan-1-ol, 25 C): 2.31 log10 K
log K of transfer, gas to solvent ([1]; Pentan-1-ol, 25 C): 2.49 log10 K
log K of transfer, gas to solvent ([1]; Propan-2-ol, 25 C): 2.46 log10 K
log K of transfer, gas to solvent ([1]; Propanone, 25 C): 3.04 log10 K
log K of transfer, gas to solvent ([1]; Tetrahydrofuran, 25 C): 2.85 log10 K
log K of transfer, gas to solvent ([1]; Toluene, 25 C): 2.63 log10 K
log K of transfer, gas to solvent ([1]; Water, 25 C): 2.83 log10 K
log K of transfer, water to solvent ([2]; 1,2-Dichloroethane, 25 C): 0.3 log10 K
log K of transfer, water to solvent ([2]; Acetone, 25 C): 0.21 log10 K
log K of transfer, water to solvent ([2]; Acetonitrile, 25 C): 0.31 log10 K
log K of transfer, water to solvent ([2]; Benzene, 25 C): -0.05 log10 K
log K of transfer, water to solvent ([2]; Butan-1-ol, 25 C): -0.26 log10 K
log K of transfer, water to solvent ([2]; Butanone, 25 C): 0.09 log10 K
log K of transfer, water to solvent ([2]; CCl4, 25 C): -0.45 log10 K
log K of transfer, water to solvent ([2]; Chlorobenzene, 25 C): -0.17 log10 K
log K of transfer, water to solvent ([2]; Chloroform, 25 C): 0.46 log10 K
log K of transfer, water to solvent ([2]; Cyclohexane, 25 C): -0.948 log10 K
log K of transfer, water to solvent ([2]; Cyclohexanone, 25 C): -0.041 log10 K
log K of transfer, water to solvent ([2]; Di-n-butyl ether, 25 C): -0.58 log10 K
log K of transfer, water to solvent ([2]; Dichloromethane, 25 C): 0.56 log10 K
log K of transfer, water to solvent ([2]; Diethyl Ether, 25 C): -0.26 log10 K
log K of transfer, water to solvent ([2]; Ethanol, 25 C): -0.06 log10 K
log K of transfer, water to solvent ([2]; Hexadecane, 25 C): -1.13 log10 K
log K of transfer, water to solvent ([2]; Hexane, 25 C): -0.867 log10 K
log K of transfer, water to solvent ([2]; Methanol, 25 C): 0.06 log10 K
log K of transfer, water to solvent ([2]; Octan-1-ol(dry), 25 C): -0.52 log10 K
log K of transfer, water to solvent ([2]; Pentan-1-ol, 25 C): -0.34 log10 K
log K of transfer, water to solvent ([2]; Propan-2-ol, 25 C): -0.37 log10 K
log K of transfer, water to solvent ([2]; Tetrahydrofuran, 25 C): 0.02 log10 K
log K of transfer, water to solvent ([2]; Toluene, 25 C): -0.2 log10 K
log K of transfer, water to solvent [3]: -0.24 log10 K
